{
  "source": "ChEMBL document CHEMBL4184313",
  "about": "“Enantiomeric neolignans from Picrasma quassioides exhibit distinctive cytotoxicity on hepatic carcinoma cells through ROS generation and apoptosis induction” (Bioorg Med Chem Lett, 2018)",
  "key": {"HepG2 [1]": {"tested_on": "HepG2", "assay": "Cell cycle arrest in human HepG2 cells assessed as accumulation at S phase at 50 uM after 48 hrs by PI staining based flow cytometry (reference value: 7%)", "format": "functional"}, "HepG2 [2]": {"tested_on": "HepG2", "assay": "Cell cycle arrest in human HepG2 cells assessed as 2N DNA content at 50 uM after 48 hrs by PI staining based flow cytometry (reference value: 70.6%)", "format": "functional"}, "HepG2 [3]": {"tested_on": "HepG2", "assay": "Cytotoxicity against human HepG2 cells assessed as decrease in cell viability after 48 hrs by MTT assay", "format": "functional, cell-based", "conditions": "HepG2, 48 h"}, "HepG2 [4]": {"tested_on": "HepG2", "assay": "Cell cycle arrest in human HepG2 cells assessed as 4N DNA content at 50 uM after 48 hrs by PI staining based flow cytometry (reference value: 15.2%)", "format": "functional"}, "HepG2 [5]": {"tested_on": "HepG2", "assay": "Induction of apoptosis in human HepG2 cells assessed as early apoptotic cells at 50 uM after 48 hrs by Annexin V-FITC/PI staining based flow cytometry (reference value: 1.61%)", "format": "functional"}, "Hep 3B2": {"tested_on": "Hep 3B2", "assay": "Cytotoxicity against human Hep3B cells assessed as decrease in cell viability after 48 hrs by MTT assay", "format": "functional, cell-based"}, "HepG2 [6]": {"tested_on": "HepG2", "assay": "Induction of apoptosis in human HepG2 cells assessed as shrinkage of cells at 50 uM after 48 hrs by phase contrast microscopy", "format": "functional, cell-based"}, "HepG2 [7]": {"tested_on": "HepG2", "assay": "Cell cycle arrest in human HepG2 cells assessed as >4N DNA content at 50 uM after 48 hrs by PI staining based flow cytometry (reference value: 2.04%)", "format": "functional"}, "HepG2 [8]": {"tested_on": "HepG2", "assay": "Induction of apoptosis in human HepG2 cells assessed as viable cells at 50 uM after 48 hrs by Annexin V-FITC/PI staining based flow cytometry (reference value: 95.7%)", "format": "functional", "conditions": "HepG2, 48 h, read-out: Activity"}, "HepG2 [9]": {"tested_on": "HepG2", "assay": "Induction of apoptosis in human HepG2 cells assessed as nuclear condensation at 50 uM after 48 hrs by […] staining based fluorescence microscopy", "format": "functional, cell-based"}, "HepG2 [10]": {"tested_on": "HepG2", "assay": "Induction of intracellular ROS accumulation in human HepG2 cells at 50 uM after 48 hrs by DCFH probe based flow cytometry", "format": "functional, cell-based"}, "HepG2 [11]": {"tested_on": "HepG2", "assay": "Induction of apoptosis in human HepG2 cells assessed as apoptotic bodies at 50 uM after 48 hrs by phase contrast microscopy", "format": "functional, cell-based"}, "HepG2 [12]": {"tested_on": "HepG2", "assay": "Cell cycle arrest in human HepG2 cells assessed as <2N DNA content at 50 uM after 48 hrs by PI staining based flow cytometry (reference value: 4.18%)", "format": "functional"}, "HepG2 [13]": {"tested_on": "HepG2", "assay": "Induction of apoptosis in human HepG2 cells assessed as rounding of cells at 50 uM after 48 hrs by phase contrast microscopy", "format": "functional, cell-based"}, "HepG2 [14]": {"tested_on": "HepG2", "assay": "Induction of apoptosis in human HepG2 cells assessed as necrotic cells at 50 uM after 48 hrs by Annexin V-FITC/PI staining based flow cytometry (reference value: 0.62%)", "format": "functional"}, "HepG2 [15]": {"tested_on": "HepG2", "assay": "Induction of apoptosis in human HepG2 cells assessed as late apoptotic cells at 50 uM after 48 hrs by Annexin V-FITC/PI staining based flow cytometry (reference value: 2.03%)", "format": "functional"}},
  "note": "Calls of active or inactive are those of the source. The rule behind the calls is not given here.",
  "data": [
    {"molecule": "COc1cc([C@@H]2Oc3c(OC)cc(/C=C/CO)cc3[C@H]2CO)ccc1O", "note": "[DEHYDROCONIFERYL ALCOHOL]", "values": [
      {"measurement": "Activity", "setting": "HepG2 [1]", "result": 8.2, "unit": "%"},
      {"measurement": "Activity", "setting": "HepG2 [2]", "result": 70.1, "unit": "%"},
      {"measurement": "IC50", "setting": "HepG2 [3]", "result": 104, "unit": "µM"},
      {"measurement": "Activity", "setting": "HepG2 [4]", "result": 16.8, "unit": "%"},
      {"measurement": "Activity", "setting": "HepG2 [5]", "result": 2.5, "unit": "%"},
      {"measurement": "IC50", "setting": "Hep 3B2", "result": 54.6, "unit": "µM"},
      {"measurement": "Activity", "setting": "HepG2 [6]", "result": "Active"},
      {"measurement": "Activity", "setting": "HepG2 [7]", "result": 1.14, "unit": "%"},
      {"measurement": "viability at 50 µM", "setting": "HepG2 [8]", "result": 94.4, "unit": "%"},
      {"measurement": "Activity", "setting": "HepG2 [9]", "result": "Active"},
      {"measurement": "Activity", "setting": "HepG2 [10]", "result": "inactive"},
      {"measurement": "Activity", "setting": "HepG2 [11]", "result": "Active"},
      {"measurement": "Activity", "setting": "HepG2 [12]", "result": 3.76, "unit": "%"},
      {"measurement": "Activity", "setting": "HepG2 [13]", "result": "Active"},
      {"measurement": "Activity", "setting": "HepG2 [14]", "result": 0.74, "unit": "%"},
      {"measurement": "Activity", "setting": "HepG2 [15]", "result": 2.37, "unit": "%"}
    ]},
    {"molecule": "COc1cc([C@@H]2Oc3c(OC)cc(/C=C/C=O)cc3[C@H]2CO)cc(OC)c1O", "values": [
      {"measurement": "IC50", "setting": "HepG2 [3]", "result": 104, "unit": "µM"},
      {"measurement": "IC50", "setting": "Hep 3B2", "result": 60.7, "unit": "µM"}
    ]},
    {"molecule": "COc1cc(C2Oc3c(OC)cc(/C=C/C=O)cc3C2CO)cc(OC)c1O", "note": "(racemic)", "values": [
      {"measurement": "IC50", "setting": "HepG2 [3]", "result": 80.5, "unit": "µM"},
      {"measurement": "IC50", "setting": "Hep 3B2", "result": 76.8, "unit": "µM"}
    ]},
    {"molecule": "COc1cc([C@H]2Oc3c(OC)cc(/C=C/C=O)cc3[C@@H]2CO)cc(OC)c1O", "values": [
      {"measurement": "IC50", "setting": "HepG2 [3]", "result": 88.7, "unit": "µM"},
      {"measurement": "IC50", "setting": "Hep 3B2", "result": 72.8, "unit": "µM"}
    ]},
    {"molecule": "COc1cc(C2Oc3c(OC)cc(/C=C/C=O)cc3C2CO)ccc1O", "note": "(racemic)", "values": [
      {"measurement": "IC50", "setting": "HepG2 [3]", "result": 36.5, "unit": "µM"},
      {"measurement": "IC50", "setting": "Hep 3B2", "result": 29.3, "unit": "µM"}
    ]},
    {"molecule": "COc1cc(C2Oc3c(OC)cc(/C=C/CO)cc3C2CO)ccc1O", "note": "(racemic)", "values": [
      {"measurement": "IC50", "setting": "HepG2 [3]", "result": 78.6, "unit": "µM"},
      {"measurement": "IC50", "setting": "Hep 3B2", "result": 65.5, "unit": "µM"}
    ]},
    {"molecule": "COc1cc([C@@H]2Oc3c(OC)cc(/C=C/C=O)cc3[C@H]2CO)ccc1O", "values": [
      {"measurement": "IC50", "setting": "HepG2 [3]", "result": 38.7, "unit": "µM"},
      {"measurement": "IC50", "setting": "Hep 3B2", "result": 31.5, "unit": "µM"}
    ]},
    {"molecule": "COc1cc([C@H]2Oc3c(OC)cc(/C=C/CO)cc3[C@@H]2CO)ccc1O", "values": [
      {"measurement": "Activity", "setting": "HepG2 [1]", "result": 6.2, "unit": "%"},
      {"measurement": "Activity", "setting": "HepG2 [2]", "result": 70.2, "unit": "%"},
      {"measurement": "IC50", "setting": "HepG2 [3]", "result": 35.6, "unit": "µM"},
      {"measurement": "Activity", "setting": "HepG2 [4]", "result": 19.1, "unit": "%"},
      {"measurement": "Activity", "setting": "HepG2 [5]", "result": 8.39, "unit": "%"},
      {"measurement": "IC50", "setting": "Hep 3B2", "result": 52.3, "unit": "µM"},
      {"measurement": "Activity", "setting": "HepG2 [6]", "result": "Active"},
      {"measurement": "Activity", "setting": "HepG2 [7]", "result": 0.6, "unit": "%"},
      {"measurement": "viability at 50 µM", "setting": "HepG2 [8]", "result": 86, "unit": "%"},
      {"measurement": "Activity", "setting": "HepG2 [9]", "result": "Active"},
      {"measurement": "Activity", "setting": "HepG2 [10]", "result": "Active"},
      {"measurement": "Activity", "setting": "HepG2 [11]", "result": "Active"},
      {"measurement": "Activity", "setting": "HepG2 [12]", "result": 3.86, "unit": "%"},
      {"measurement": "Activity", "setting": "HepG2 [13]", "result": "Active"},
      {"measurement": "Activity", "setting": "HepG2 [14]", "result": 1.71, "unit": "%"},
      {"measurement": "Activity", "setting": "HepG2 [15]", "result": 3.87, "unit": "%"}
    ]},
    {"molecule": "COc1cc([C@H]2Oc3c(OC)cc(/C=C/C=O)cc3[C@@H]2CO)ccc1O", "values": [
      {"measurement": "IC50", "setting": "HepG2 [3]", "result": 38.1, "unit": "µM"},
      {"measurement": "IC50", "setting": "Hep 3B2", "result": 22.4, "unit": "µM"}
    ]}
  ]
}
